According to US20100273189A1, “NON SEPARATION ASSAYS WITH SELECTIVE SIGNAL INHIBITORS” (BECKMAN COULTER, INC., priority 2009, published 2010):

Molecular target: T1, biotinylated HRP (Armoracia rusticana, UniProt P00433)
T1 construct: purchased Roche Diagnostics, Indianapolis, Ind., USA
T1 sequence (P00433 31-338 limits assumed): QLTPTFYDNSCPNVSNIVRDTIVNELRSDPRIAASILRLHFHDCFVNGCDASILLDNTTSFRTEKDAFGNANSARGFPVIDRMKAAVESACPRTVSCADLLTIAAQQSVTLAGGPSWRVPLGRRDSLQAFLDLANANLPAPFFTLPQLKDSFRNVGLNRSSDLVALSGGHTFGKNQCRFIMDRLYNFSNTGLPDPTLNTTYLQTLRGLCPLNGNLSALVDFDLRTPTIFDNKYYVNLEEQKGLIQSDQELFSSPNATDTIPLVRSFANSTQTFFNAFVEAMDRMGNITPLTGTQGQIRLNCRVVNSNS
Assay: Model system for selection of SSIA (M280 btn-BSA-AK1-streptavidin particles + Btn-HRP:HRP)
Format: biochemical
Settings: for S/S0: Btn-HRP 0 ng/mL vs 0; for S/S0 / S1/S0 / S2/S0 / S3/S0 / S4/S0 / effect in the model system / utility as SSIA: SSIA 100 μM; for B-HRP0 light intensity: Btn-HRP 0 ng/mL; for B-HRP0 light intensity / B-HRP1 light intensity / B-HRP10 light intensity / B-HRP100 light intensity / B-HRP250 light intensity: total HRP 500 ng/mL, SSIA final 100 μM; for S1/S0: Btn-HRP 1 ng/mL vs 0; for B-HRP1 light intensity: Btn-HRP 1 ng/mL; for S2/S0: Btn-HRP 10 ng/mL vs 0; for B-HRP10 light intensity: Btn-HRP 10 ng/mL; for S3/S0: Btn-HRP 100 ng/mL vs 0; for B-HRP100 light intensity: Btn-HRP 100 ng/mL; for S4/S0: Btn-HRP 250 ng/mL vs 0; for B-HRP250 light intensity: Btn-HRP 250 ng/mL; for effect in the model system / utility as SSIA: conclusion in words
Description: The model system uses a microparticle conjugated to BSA (bovine serum albumin) labeled with a […] and acridan ketenedithioacetal chemiluminescent label (AK1) as the chemiluminescent-labeled sbp, and biotinylated HRP as the activator-labeled specific binding pair. In the model system, varying amounts of Btn-HRP is added to the chemiluminescent-labeled specific binding pair at 0, 1, 10, 100 and 250 ng/mL. Additional unlabeled HRP is added to reach a total HRP of concentration of 500 ng/mL in each reaction mixture. The unlabeled HRP in combination with the activator-labeled sbp was provided to the chemiluminescent-labeled sbp microparticles to emulate sample. A compound for assessment as an SSIA was also added. This reaction mixture of the model system is then triggered by addition of trigger solution in a manner of assays of the present disclosure.
To prepare the chemiluminescent-labeled sbp on microparticles, Bovine Serum Albumin (BSA) was biotinylated with 4× molar excess of biotin-LC-sulfoNHS (Pierce Biotechnology Inc., Rockford, Ill., USA). Unbound reactants were removed via desalting or dialysis. The biotin-BSA was then reacted with a 5× molar excess of acridan ketenedithioacetal AK1 in 20 mM sodium phosphate pH 7.2: DMSO 75:25, v/v) followed by desalting in the same buffer. The dual labeled (biotin and AK1) BSA was then coupled with tosyl activated M-280 microparticles (Invitrogen Corporation, Carlsbad, Calif., USA) in a 0.1 M borate buffer pH 9.5 at a concentration of ca. 20 μg labeled BSA per mg of microparticles for 16-24 h at 40° C. After coupling the microparticles were stripped for 1 h at 40° C. with 0.2 M TRIS base, 2% SDS, pH ˜11. The stripping process was repeated one additional time. Microparticles were then suspended in a 0.1% BSA/TRIS buffered saline (BSA/TBS) buffer and streptavidin (SA) was added at approximately 15 μg SA per mg microparticles. Streptavidin was mixed with the microparticles for 45-50 min at room temperature. The microparticles were then washed three times and suspended in the same BSA/TBS.
HRP, (Roche Diagnostics, Indianapolis, Ind., USA) was biotinylated with 4× molar excess of biotin-LC-sulfoNHS (Pierce Biotechnology Inc., Rockford, Ill., USA). Unbound reactants were removed via desalting or dialysis.
Each SSIA compound for assessment was dissolved in Buffer II at a concentration at least 10× of final concentration of the reaction mixture (after the addition of the trigger solution)
Paramagnetic particles (PMP): (M280)-(btn-BSA-AK)-(Streptavidin);
Sample Emulator: B-HRP:HRP; 500 ng/mL total with titration of B-HRP:HRP at Total HRP concentration of 500 ng/mL, with Btn-HRP variations: 0, 1, 10, 100 and 250 ng/mL.
SSIA: According to tables below in BUFFER II targeted to give a final concentration of 100 μM.
Trigger solution A is defined above.
5 μl of 1 mg/ml of dual-labeled (biotin and AK1) BSA M280 particles were mixed with 45 μl of working concentration SSIA in Buffer II. The assay volume brought to […] by adding 15 μl of Buffer II. 15 μl of sample containing Btn-HRP:HRP at different ratios (The amount of biotinylated-HRP varied from 0, 1, 10, 100 and 250 ng/mL) was added. The reaction mixture was incubated for 30 min at 37° C., then 100 μL of trigger solution was added and the light intensity recorded. Total volume of reaction mixture, including trigger solution was […] with a final concentration of 100 μM of SSIA.

Row | SMILES | S/S0 | B-HRP0 light intensity | S1/S0 | B-HRP1 light intensity | S2/S0 | B-HRP10 light intensity | S3/S0 | B-HRP100 light intensity | S4/S0 | B-HRP250 light intensity | effect in the model system / utility as SSIA
1 | Oc1ccc(Cl)cc1O [4-chlorocatechol] | 1 | 93 | 2.2 | 205 | 14.8 | 1,373 | 4910.8 | 456,707 | 13558.5 | 1,260,937 | demonstrating utility as SSIA
2 | COc1cc(/C=C/C(=O)O)ccc1O [Ferulic acid] | 1 | 5,252 | 2.3 | 12,079 | 136.2 | 715,313 | 1672.9 | 8,785,865 | 1950.5 | 10,244,269 | –
3 | Cc1c(C)c2c(c(C)c1O)CCC(C)(C(=O)O)O2 (stereo not drawn) [Trolox ®, Trolox] | 1 | 173 | 8.4 | 1,460 | 215.1 | 37,291 | 41832.7 | 7,251,008 | 62274.5 | 10,794,247 | demonstrating utility as SSIA
4 | O=c1[nH]c(=O)c2[nH]c(=O)[nH]c2[nH]1 [Uric Acid] | 1 | 5,532 | 1.8 | 9,760 | 185.3 | 1,025,209 | 1574.9 | 8,712,328 | 1935.8 | 10,708,733 | –
5 | COc1ccc2[nH]cc(CCNC(C)=O)c2c1 [Melatonin] | 1 | 54,528 | 1.3 | 70,741 | 43.7 | 2,381,361 | 173.7 | 9,471,431 | 190.2 | 10,370,061 | no effect
6 | Nc1ccc(C(=O)O)cc1O [4-Amino-3-hydroxybenzoic acid, 4-amino-3-hydroxybenzoic acid] | 1 | 972 | 2.9 | 2,808 | 454.2 | 441,455 | 6076.7 | 5,906,521 | 6587.9 | 6,403,425 | demonstrating utility as SSIA
7 | CC(=O)N[C@@H](CS)C(=O)O [N-Ac-Cysteine, N-acetyl cysteine] | 1 | 43,647 | 1.1 | 47,636 | 40.3 | 1,757,607 | 199 | 8,685,795 | 234.2 | 10,219,869 | no effect
8 | Oc1ccc(O)c(Cl)c1 [2-chloro-1,4-dihydroxybenzene] | 1 | 3,571 | 1.1 | 4,007 | 52.9 | 188,920 | 170.8 | 610,053 | 245.3 | 875,831 | demonstrating utility as SSIA
9 | Cc1c(O)cc2c(c1C)O[C@](C)(CCC[C@H](C)CCC[C@H](C)CCCC(C)C)CC2 [(+)-gamma-Tocopherol, (+)-y-Tocopherol] | 1 | 6,051 | 1.8 | 10,924 | 278.7 | 1,686,079 | 1437.5 | 8,698,069 | 1699.4 | 10,282,504 | –
10 | CCCCCCCCCCCCCCCC(=O)OC[C@H](O)[C@H]1OC(=O)C(O)=C1O [Ascorbic Acid 6-palmitate, L-Ascorbic acid 6-Palmitate] | 1 | 81 | 4 | 327 | 502.4 | 40,863 | 100662.3 | 8,187,204 | 125193.6 | 10,182,411 | demonstrating utility as SSIA
11 | Oc1ccc(C=Cc2cc(O)cc(O)c2)cc1 [Resveratrol] | – | 64,051 | – | 81,452 | – | 1,073,968 | – | 5,944,792 | – | – | –
12 | Cl.Nc1ccc(O)cc1O [4-aminoresorcinol HCl, 4-aminoresorcinol hydrochloride] | 1 | 675 | 1.7 | 1,163 | 110.8 | 74,764 | 489 | 330,056 | 384.5 | 259,541 | demonstrating utility as SSIA
13 | CC1(C)OC[C@@H]([C@H]2OC(=O)C(O)=C2O)O1 [5,6iso-propyliene ascorbic acid, 5,6-Isopropylidene-L-Ascorbic acid] | 1 | 264 | 3.6 | 961 | 112.3 | 29,645 | 18626.9 | 4,917,499 | 33275 | 8,784,595 | demonstrating utility as SSIA
14 | O=C(O)CCCC[C@@H]1CCSS1 (racemic) [Lipoic Acid] | 1 | 35,016 | 2 | 71,751 | 70 | 2,450,949 | 246.9 | 8,647,037 | 252.7 | 8,847,921 | no effect
